# Assay results: patent US20130210786A1, “TREATMENT OF L-DOPA, DOPAMINE AGONIST AND/OR DOPAMINE ENHANCER INDUCED DISORDERS” (priority 2010, published 2013)
# Experiments:
# [1] = test system: MPTP-lesioned macaques; assay: L-DOPA induced dyskinesia (LID) in MPTP-lesioned macaques, monkey dyskinesia rating scale; type: in vivo, Macaca fascicularis; conditions: group 1 (L-DOPA+vehicle); challenge with L-DOPA 12, 20, 30 or 40 mg/kg p.o.
# Procedure: Ten female cynomolgus monkeys (macaques) (Macaca fascicularis, 3.0-4.5 kg, 4-6 years old) were acclimatised to the experimental setting and procedures for 3 months and baseline behaviour was assessed in all animals. The macaques received MPTP (0.2 mg/kg/day, s.c.) until moderate-marked, stable, parkinsonian symptoms developed.
# Following stabilisation of parkinsonian disability, the macaques were administered L-DOPA (Madopar, 20 mg/kg b.i.d., p.o.) for 19 weeks before being administered L-DOPA+vehicle (hydroxypropylmethylcellulose, HPMC, 0.5% w/v containing Tween 80, 0.2% v/v, group 1, n=5) or L-DOPA+smilagenin (20 mg/kg/day, p.o., group 2, n=5) for a further 18 weeks. Smilagenin was then washed out for 10 weeks and all the macaques received only L-DOPA twice daily over this 10 week period.
# Following the 10 week washout, the macaques were challenged with L-DOPA (6, 12, 20, 30 or 40 mg/kg, p.o.) or vehicle and the level of dyskinesia over the subsequent 6 h period was assessed by a neurologist blinded to treatment using a monkey dyskinesia rating scale. […] Each macaque received a challenge once every 3 days and received every challenge (vehicle and L-DOPA, 6, 12, 20, 30 or 40 mg/kg) in a randomised order over the course of the experiment. On the days between challenges, the macaques received L-DOPA (20 mg/kg, b.i.d., p.o.) as normal.
# The MPTP-lesioned and L-DOPA treated macaques used in this experiment provide an accepted model for L-DOPA-induced dyskinesia.
# [2] = test system: MPTP-lesioned macaques; assay: On-time (time without bradykinesia) in MPTP-lesioned macaques after L-DOPA challenge; type: in vivo, Macaca fascicularis; conditions: both groups; L-DOPA challenge 6-40 mg/kg p.o.
# Procedure: Analysis was performed using a two-way ANOVA with group and L-DOPA dose as factors.
structure (smiles),measurement,setting,value
"N[C@@H](Cc1ccc(O)c(O)c1)C(=O)O [L-DOPA, L-3,4-dihydroxyphenylalanine]",Dyskinesia following challenge with L-DOPA,[1],dose-dependent dyskinesia up to the 30 mg/kg dose
same,Effect of L-DOPA on amount of on-time,[2],increased the amount of on-time
